This is an account of results in patent US20030032771A1, “Peptide inhibitors of cellular proliferation” (priority 2001, published 2003).

For the experiment, the system named is Drosophila early embryos (syncytial blastoderm). Briefly: Cytological analysis of mitosis in live Drosophila melanogaster embryos after microinjection (time-lapse confocal microscopy). The experiment is classed as in vivo. As to the method: Embryo microinjections. Microinjections of 0-2 hour Drosophila embryos were carried out as described previously (Sharp et al., J. Cell Biol. 144:125-138 (1999)). Briefly, embryos were initially injected with rhodamine-conjugated bovine tubulin (purchased from Molecular Probes or made in our own laboratory) allowed to recover for 5 minutes and then injected with antibodies or with buffer alone for controls. Because, in our hands, tubulin injections prior to the cortical migration of nuclei at cycle 10 […] normally halts development, embryos were injected with antibodies during cycle 11.
Time-lapse laser scanning confocal microscopy. All images were acquired on a Leica TCS SP confocal microscope run by the Leica TCS software. Time-series were generated using the ‘Time Series’ function contained in the control panel. Each image results from two accumulated (averaged) scans of the sample and new images were acquired every 5 seconds. Because changes in the MT arrays of early embryos occur so quickly, all of the images shown and analyzed in this study represent 1 focal plane (no z-series' were performed). This allowed for the highest temporal and spatial resolution with the least amount of bleaching and other damage resulting from multiple laser scans.
The peptide expressed as described in Example 1 was delivered to Drosophila early embryos (synicytial blastoderm) by microinjections. Drosophila is a much studied organism; its genome has been fully sequenced and its genetics and biochemistry are well understood. In addition, it provides a convenient system for live cytological analyses of mitosis. In the early embryo (syncytial blastoderm) the nuclei form a two-dimensional sheet interconnected by cytoplasm, which proceed through mitosis meta-cynchronously. Because of this, it is possible to inject fluorescent probes like rhodamine tubulin into fly embryos that are transgenically carrying Green Fluorescent protein (GFP)-labeled chromosomes to watch chromosome move on spindle microtubules in real-time. […]

“GEKETPVQKCQRLQIEMNELLNEVAALQVDRKVADEEKQSYDAVVATVISTAR (Drosophila melanogaster) [peptide underlined in FIG. 4]”: where the note is “embryo microinjected with peptide, still images at about 80 seconds intervals, FIG. 5 panels C-E, rhodamine tubulin, GFP-histone”, the “formation of two daughter nuclei on mitotic spindles (chromosome separation from the metaphase plate)” value was “no spindles upon which two daughter nuclei are formed”. In addition, for the setting “embryos injected with the peptide, during mitosis”, the “defects in spindle structure” value is recorded as “no significant defects in spindle structure”. Moreover, for the setting “initial studies, peptide-injected Drosophila embryos”, the “ability of chromosomes to separate in proliferative cells” value was “strongly and specifically inhibits”.
